In series [1] the test system is NIH3T3 fibroblast lines. Kind of series: Cytotoxicity test: cell proliferation by MTT analysis (Ez-cytox kit). Conditions: NIH3T3 fibroblasts, 3.9 to 500 μM, 48 hours, vs non-treated negative control.
Series [2] deals with HaCaT keratinocyte lines. The description is as above. The note with it: HaCaT keratinocytes, 3.9 to 500 μM, 48 hours, vs non-treated negative control.

Each structure is given as a SMILES string.

For `CN(Cc1cnc2nc(N)nc(N)c2n1)c1ccc(C(=O)N[C@@H](CCC(=O)O)C(=O)O)cc1` [methotrexate, Methotrexate], the “cytotoxicity (inhibition of cell proliferation)” value in series [1] and in series [2] was “exhibited a significant degree of cytotoxicity” in each case.

For the origin of these results see patent publication US11253604B2, “Conjugate of methotrexate and peptide” (CAREGEN CO., LTD., priority 2017, dated 2022).
